According to patent publication US8309685B2 (Celgene Avilomics Research, Inc., priority 2007, dated 2012):

How the values were obtained:
[1] = biological target: T1, wild type HCV NS3/4A 1b protease enzyme (Hepatitis C virus genotype 1b, UniProt P26663); assay: HCV Protease FRET Assay (IC50_APP), wild type; format: biochemical; details: read-out: IC50_APP, WT; apparent IC50, wild type NS3/4A 1b
T1 construct: 10× stocks of NS3/4A protease enzyme from Bioenza (Mountain View, Calif.); purchased Bioenza (Mountain View, Calif.)

[2] = biological target: T2, C159S mutant of the HCV NS3/4A 1b protease enzyme (Hepatitis C virus genotype 1b, UniProt P26663, C1185S); assay: HCV Protease FRET Assay (IC50_APP), C159S mutant; format: biochemical; details: apparent IC50, C159S mutant
T2 construct: 10× stocks of NS3/4A protease enzyme from Bioenza (Mountain View, Calif.); purchased Bioenza (Mountain View, Calif.)
Procedure: (§1) HCV Protease FRET Assay for WT and Mutated NS3/4A 1b Enzymes (IC50—APP).
(§2) The following protocol was used to generate “apparent” IC50 (IC50—APP) values as depicted in Table 6, below. […] 5 μL of each enzyme were added to Corning (#3575) 384-well, black, microtiter plates (Corning, N.Y.) after spotting a 0.5 μL volume of 50% DMSO and serially diluted compounds prepared in 50% DMSO. Protease reactions were immediately started after enzyme addition with the addition of 45 μL of the FRET substrate and monitored for 60-90 minutes at λex485/λem520 in a Synergy^4 plate reader from BioTek (Winooski, Vt.). At the conclusion of each assay, progress curves from each well were examined for linear reaction kinetics and fit statistics (R^2, 95% confidence intervals, absolute sum of squares).
(§3) The compound numbers correspond to the compound numbers in Table 3. […] ;

[3] = biological target: T3, D168A mutant of the HCV NS3/4A 1b protease enzyme (Hepatitis C virus genotype 1b, UniProt P26663, D1194A); assay: HCV Protease FRET Assay (IC50_APP), D168A mutant; format: biochemical; details: apparent IC50, D168A mutant; read-out: IC50_APP, HCV D168A
T3 construct: 10× stocks of NS3/4A protease enzyme from Bioenza (Mountain View, Calif.); purchased Bioenza (Mountain View, Calif.)

[4] = biological target: T4, R155K mutant of the HCV NS3/4A 1b protease enzyme (Hepatitis C virus genotype 1b, UniProt P26663, R1181K); assay: HCV Protease FRET Assay (IC50_APP), R155K mutant; format: biochemical; details: apparent IC50, R155K mutant; read-out: IC50_APP, HCV R155K
T4 construct: 10× stocks of NS3/4A protease enzyme from Bioenza (Mountain View, Calif.); purchased Bioenza (Mountain View, Calif.)
Procedure: as §1, §2, §3

[5] = test system: HCV RNA replicon in cell line ET (luc-ubi-neo/ET), human Huh7 hepatoma; assay: Luciferase Assay (Example 35), replicon-derived luciferase activity; format: cell-based; details: Hepatitis C virus, Huh-7; assay described in Example 35
Procedure: The compounds were assayed to evaluate the antiviral activity and cytotoxicity of compounds using replicon-derived luciferase activity. This assay used the cell line ET (luc-ubi-neo/ET), which is a human Huh7 hepatoma cell line that contains an HCV RNA replicon with a stable luciferase (Luc) reporter and cell culture-adaptive mutations. The ET cell line was grown in a 5% CO2 incubator at 37° C. in Dulbecco's modified essential media (DMEM) supplemented with 2 mM L-glutamine, nonessential amino acids, 100 U of penicillin/ml, 100 μg of streptomycin/mL, and 10% fetal bovine serum. G418 (Geneticin; Invitrogen) was added at a final concentration of 400 ug//mL.
All cell culture reagents were obtained from Invitrogen (Carlsbad). Cells were trypsinized (1% trypsin:EDTA) and plated out at 5×10^3 cells/well in white 96-well assay plates (Costar) dedicated to cell number (cytotoxicity) or antiviral activity assessments. Test compounds were added at six 3-fold concentrations each and the assay was run in DMEM, 5% FBS, 1% pen-strep, 1% glutamine, 1% non essential amino acid. Human interferon alpha-2b (PBL Biolabs, New Brunswick, N.J.) was included in each run as a positive control compound. Cells were processed 72 hr post test compound addition when the cells were still subconfluent. Antiviral activity was measured by analyzing replicon-derived luciferase activity using the Steady-Glo Luciferase Assay System (Promega, Madison, Wis.) according to manufacturer's instruction. The number of cells in each well was determined by Cell Titer Blue Assay (Promega). Compound profile was derived by calculating applicable EC50 (effective concentration inhibiting virus replication by 50%), EC90 (effective concentration inhibiting virus replication by 90%), IC50 (concentration decreasing cell viability by 50%) and SI50 (selective index: […]) values.

[6] = biological target: T1, wild type HCV NS3/4A 1b protease enzyme; assay: biochemical; format: biochemical; details: read-out: Inhibition, WT; WT enzyme, FRET assay
[7] = biological target: T5, A156T mutant of the HCV NS3/4A 1b protease enzyme (Hepatitis C virus genotype 1b, UniProt P26663, A1182T); assay: HCV Protease FRET Assay (IC50), A156T mutant; format: biochemical; details: read-out: Inhibition, HCV A156T; A156T enzyme, FRET assay
T5 construct: 10× stocks of NS3/4A protease enzyme from Bioenza (Mountain View, Calif.); purchased Bioenza (Mountain View, Calif.)

[8] = biological target: T3, D168A mutant of the HCV NS3/4A 1b protease enzyme; assay: HCV Protease FRET Assay (IC50), D168A mutant; format: biochemical; details: read-out: Inhibition, HCV D168A; D168A enzyme, FRET assay
HCV NS3/4A protease = HCV NS3/4A protease (UniProt Q9WMX2); assay: Method B: HCV Protease Assay using FRET Methodology; parameters: species or system Hepatitis C virus; details: read-out: Inhibition, Biochemical; Enzyme/Assay: Biochemical
Excerpt: Method B: HCV Protease Assay using FRET Methodology
A quantitative, fluorescence resonance energy transfer (FRET)-based methodology was employed to identify HCV NS3/4A protease inhibitors. The assay employed a synthetic FRET peptide, derived from the HCV NS5A/5B cleavage site, with the HCV protease to evaluate the activity of compounds against the protease by monitoring the cleavage activity of the complex. A synthetic peptide which encompasses the NS5A-5B junction (NH2-EDVVCCSMSYK-COOH) was labeled with Dabcyl and Edans at N- and C-termini, respectively (Invitrogen, Carlsbad, Calif.). Fluorescence measurement was used to estimate the IC50 value of the test compound. […] Upon cleavage of the FRET peptide by HCV NS3/4A proteinase complex (100 ng/mL), the fluorescence is recovered and can be continuously monitored at excitation/emission=340/490 nm.

[9] = test system: HCV RNA replicon in cell line ET (luc-ubi-neo/ET), human Huh7 hepatoma; assay: Method A: HCV RNA replicon antiviral assay (luciferase, ET cell line); format: cell-based, Hepatitis C virus; details: Hepatitis C virus, Huh-7; Replicon, assay of Example 22; 72 hr; read-out: Inhibition, Replicon
Outline: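 Six 3-fold dilutions of each drug were tested on subconfluent luc-ubi-neo/ET Huh7 replicon cells (5×10^3/well) for 72 hr at 37 °C. EC50 and EC90 came from luciferase read-out, IC50 from CytoTox-1 cell number, and […]; interferon alpha-2b was run each time as control.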

[10] = test system: cell line ET (luc-ubi-neo/ET), human Huh7 hepatoma cell line; assay: Method A: cytotoxicity in ET replicon cells (CytoTox-1); format: cell-based; details: concentration decreasing cell viability by 50%, 72 hr
Outline: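 ET cells (Huh7 carrying luciferase HCV replicon), 5×10^3 cells/well, given six 3-fold compound concentrations in DMEM with 5% FBS. After 72 hr, while subconfluent, cell number was measured with CytoTox-1 reagent. Interferon alpha-2b served as positive control.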

C=CC1CC1(NC(=O)C1CC(n2nnc(-c3ccc(OC)cc3)n2)CN1C(=O)C(CCC(=O)C=C(C)C)NC(=O)OC(C)(C)C)C(=O)NS(=O)(=O)C1CC1 (stereo not drawn) [Compound I-107]
IC50 [1]: < 10 nM
IC50 [2]: 10 to 100 nM
IC50 [3]: 1000 to 10000 nM
IC50 [4]: 1000 to 10000 nM
EC50 [5]: 100 to 1000 nM

C=CC(=O)NC[C@H](NC(=O)OC(C)(C)C)C(=O)N1C[C@H](Oc2nc3ccccc3nc2-c2cccs2)C[C@H]1C(=O)N[C@]1(C(=O)NS(=O)(=O)C2CC2)C[C@H]1C=C [Compound I-109]
IC50 [1]: < 10 nM
IC50 [2]: 100 to 1000 nM
IC50 [3]: 1000 to 10000 nM
IC50 [4]: 100 to 1000 nM
EC50 [5]: 100 to 1000 nM

C=C[C@@H]1C[C@]1(NC(=O)[C@@H]1C[C@@H](Oc2nc3ccccc3nc2-c2cccs2)CN1C(=O)[C@H](CCC(=O)C=C(C)C)NC(=O)OC(C)(C)C)C(=O)NS(=O)(=O)C1CC1 [Compound I-110]
IC50 [1]: < 10 nM
IC50 [2]: 10 to 100 nM
IC50 [3]: 1000 to 10000 nM
IC50 [4]: 100 to 1000 nM
EC50 [5]: 10 to 100 nM

C=C[C@@H]1C[C@]1(NC(=O)[C@@H]1C[C@@H](Oc2cc(-c3ccccc3)nc3cc(OC)ccc23)CN1C(=O)[C@H](CNC(=O)/C=C/C)NC(=O)OC(C)(C)C)C(=O)NS(=O)(=O)c1ccccc1 [Compound I-2, N-[(1,1-dimethylethoxy)carbonyl]-3-[(2-butenoyl)amino]-L-alanyl-(4R)-4-[(7-methoxy-2-phenyl-4-quinolinyl)oxy]-L-prolyl-1-amino-2-ethenyl-N-(phenylsulfonyl)-(1R,2S)-cyclopropanecarboxamide]
IC50 [6]: < 10 nM
IC50 [7]: 10 to 100 nM
IC50 [8]: 1000 to 10000 nM
IC50 (HCV NS3/4A protease): 100 to 1000 nM
IC50 [9]: 100 to 1000 nM
Inhibition, Cytotoxicity [10]: E (IC50≧10,000 nM)
